Reference: patent US7446195B2, “High affinity thiophene-based and furan-based kinase ligands” (Schering Corporation, priority 2005, dated 2008)

target: CDK-2 (Homo sapiens, UniProt P24941); test: CDK-2 inhibition (Table 1; fluorescence polarization displacement assay); assay type: binding; details: inhibitory effectiveness toward CDK-2
Description: The affinity of lead inhibitors binding to CDK-2 and CDK-2/cyclin A were determined by measuring a Ki value using a fluorescence polarization displacement assay. The deacetylated form of compound BMS-250595 was reacted with Alexa Fluor 647 to generate a compound (BMS-Alexa Fluor647) that bound to both proteins and provided a signal for fluorescence polarization displacement. Binding assays were performed in a 384 well Costar NBS coated plate. A total volume of […] contained concentrations of CDK-2 or CDK-2/cyclin A at […], respectively. The concentration of BMS-Alexa Fluor647 was 50 nM. Serial dilutions of compounds were added to 12 wells. The final buffer concentration was 10 mM Hepes, pH 7.5, 150 mM NaCl, and 1 mM DTT. Samples were incubated at room temperature for 15 minutes and then read in an Analyst HT instrument using an excitation and emission wavelength of 580 and 680 nm, respectively. The […] curve fitting tool described by Zhang et al., 2004 (Zhang R., Mayhood T., Lipari P., Wang Y., Durkin D., Syto R., Gesell J., McNemar C., and Windsor W., Analytical Biochemistry 331 (2004) 138-146)

| IC50 [nM] | Compound |
| --- | --- |
| ≤ 1000 | COc1ccc(C(=O)Nc2ccc(C(=O)Nc3ccc(-n4cncn4)cc3)s2)c(C)c1 [Compound 2] |
| ≤ 1000 | Cc1cc(N2CCOCC2)ccc1NC(=O)c1ccc(C(=O)Nc2ccc(-n3cncn3)cc2)s1 [Compound 3] |
| ≤ 1000 | Cc1cc(OCCO)ccc1NC(=O)c1ccc(C(=O)Nc2ccc(-n3cncn3)cc2)s1 [Compound 4] |
| ≤ 1000 | COc1ccc(NC(=O)c2ccc(C(=O)Nc3ccc(-n4cncn4)c(F)c3)o2)c(C)c1 [Compound 5] |
| ≤ 1000 | COc1ccc(NC(=O)c2ccc(C(=O)Nc3ccc(-c4nc[nH]n4)c(F)c3)o2)c(C)c1 [Compound 7] |
| ≤ 1000 | Cc1cc(Cn2ccnc2)ccc1NC(=O)c1ccc(C(=O)Nc2ccc(-n3cncn3)cc2)s1 [Compound 9] |
| ≤ 1000 | Cc1cc(OCCN2CCOCC2)ccc1NC(=O)c1ccc(C(=O)Nc2ccc(-n3cncn3)cc2)s1 [Compound 11] |
| ≤ 1000 | O=C(Nc1ccc(-n2cncn2)c(F)c1)c1ccc(C(=O)Nc2ccccc2Cl)s1 [Compound 19] |
| ≤ 1000 | Cc1cc(CN2CCN(C)CC2)ccc1NC(=O)c1ccc(C(=O)Nc2ccc(-n3cncn3)c(F)c2)s1 [Compound 23] |
| ≤ 1000 | COc1ccc(NC(=O)c2ccc(C(=O)Nc3ccc(-n4cncn4)cc3)o2)c(C)c1 [Compound 26] |
| ≤ 1000 | Cc1cc(N2CCN(C)CC2)ccc1NC(=O)c1ccc(C(=O)Nc2ccc(-n3cncn3)cc2)s1 [Compound 29] |
| ≤ 1000 | Cc1ccccc1NC(=O)c1ccc(C(=O)Nc2ccc(-n3cncn3)cc2)o1 [Compound 31] |

The remaining lines, values behind:

| Compound | IC50 [nM] |
| --- | --- |
| Cc1cc(N2CCOCC2)ccc1NC(=O)c1ccc(C(=O)Nc2ccc(-n3cncn3)c(F)c2)s1 [Compound 6] | ≤ 1000 |
| COc1ccc(C(=O)Nc2ccc(C(=O)Nc3ccc(-c4nc[nH]n4)c(F)c3)s2)c(C)c1 [Compound 8] | ≤ 1000 |
| Cc1cc(Cn2ccnc2)ccc1NC(=O)c1ccc(C(=O)Nc2ccc(-n3cncn3)c(F)c2)s1 [Compound 10] | ≤ 1000 |
| Cc1cc(OCCN2CCN(C)CC2)ccc1NC(=O)c1ccc(C(=O)Nc2ccc(-n3cncn3)cc2)s1 [Compound 12] | ≤ 1000 |
| COc1ccc(NC(=O)c2ccc(C(=O)Nc3ccc(-n4cncn4)cc3)s2)c(C)c1 [Compound 13] | ≤ 1000 |
| COc1ccc(C(=O)Nc2ccc(C(=O)Nc3ccc(-n4cncn4)c(F)c3)s2)c(C)c1 [Compound 14] | ≤ 1000 |
| Cc1cc(N[C@H]2CCNC2)ccc1NC(=O)c1ccc(C(=O)Nc2ccc(-n3cncn3)c(F)c2)s1 [Compound 15] | ≤ 1000 |
| Cc1cc(CN2CCOCC2)ccc1NC(=O)c1ccc(C(=O)Nc2ccc(-n3cncn3)cc2)s1 [Compound 16] | ≤ 1000 |
| COc1ccc(NC(=O)c2ccc(C(=O)Nc3ccc(-n4cncn4)c(F)c3)s2)c(C)c1 [Compound 17] | ≤ 1000 |
| O=C(Nc1ccc(-n2cncn2)cc1)c1ccc(C(=O)NC2CCCCC2)o1 [Compound 18] | ≤ 1000 |
| Cc1cc(CN2CCOCC2)ccc1NC(=O)c1ccc(C(=O)Nc2ccc(-n3cncn3)c(F)c2)s1 [Compound 20] | ≤ 1000 |
| O=C(Nc1ccc(-n2cncn2)cc1)c1ccc(NC(=O)C2CCCCC2)s1 [Compound 21] | ≤ 1000 |
| COc1ccc(NC(=O)c2ccc(C(=O)Nc3ccc(-c4nc[nH]n4)c(F)c3)s2)c(C)c1 [Compound 22] | ≤ 1000 |
| Cc1ccccc1NC(=O)c1ccc(C(=O)Nc2ccc(-n3cncn3)cc2)s1 [Compound 24] | ≤ 1000 |
| COc1ccc(NC(=O)c2ccc(C(=O)Nc3ccc(-c4nnc[nH]4)cc3)s2)c(C)c1 [Compound 25] | ≤ 1000 |
| O=C(Nc1ccc(-n2cncn2)c(F)c1)c1ccc(C(=O)NC2CCCCC2)o1 [Compound 27] | ≤ 1000 |
| C[C@H](NC(=O)c1ccc(C(=O)Nc2ccc(-n3cncn3)c(F)c2)o1)C1CCCCC1 [Compound 28] | ≤ 1000 |
| Cc1cc(N2CCNCC2)ccc1NC(=O)c1ccc(C(=O)Nc2ccc(-n3cncn3)cc2)s1 [Compound 30] | ≤ 1000 |
| Cc1cc(CN2CCN(C)CC2)ccc1NC(=O)c1ccc(C(=O)Nc2ccc(-n3cncn3)cc2)s1 [Compound 32] | ≤ 1000 |
